Source: the supplement of paper PMC10307832

Experiments:
Assay in all cases: relative viability (nuclei count vs DMSO), 5 days (fraction); higher = more cells survive
Bemcentinib + Dasatinib = compound: Nc1nc(Nc2ccc3c(c2)CC[C@@H](N2CCCC2)CC3)nn1-c1cc2c(nn1)-c1ccccc1CCC2 [Bemcentinib] + Cc1nc(Nc2ncc(C(=O)Nc3c(C)cccc3Cl)s2)cc(N2CCN(CCO)CC2)n1 [Dasatinib] (partner 0.075 µM)
Summary of the method: (§1)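 Nuclei were stained with Hoechst during a one-step fixation (final 0.05% Triton X-100, 1% formaldehyde, 1 ug/ml Hoechst) carried out 5 days after dosing, then counted on 4× images. The cells, lung cancer lines in 1536-well plates, had been dosed by pin tool the day after seeding with one drug alone or a fixed anchor-drug dose plus five library-drug doses (not always all listed) in √10 steps. Relative viability is the nuclei count in treated wells divided by that in vehicle wells, and each value is the median of duplicate plates.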

Bemcentinib + Vorinostat = compound: Nc1nc(Nc2ccc3c(c2)CC[C@@H](N2CCCC2)CC3)nn1-c1cc2c(nn1)-c1ccccc1CCC2 [Bemcentinib] + O=C(CCCCCCC(=O)Nc1ccccc1)NO [Vorinostat] (partner 1 µM)
Summary of the method: as §1

Axitinib + Phenformin = compound: CNC(=O)c1ccccc1Sc1ccc2c(/C=C/c3ccccn3)n[nH]c2c1 [Axitinib] + N=C(N)NC(=N)NCCc1ccccc1 [Phenformin] (partner 250 µM)
Summary of the method: as §1

Bemcentinib + Decitabine = compound: Nc1nc(Nc2ccc3c(c2)CC[C@@H](N2CCCC2)CC3)nn1-c1cc2c(nn1)-c1ccccc1CCC2 [Bemcentinib] + Nc1ncn([C@H]2C[C@H](O)[C@@H](CO)O2)c(=O)n1 [Decitabine] (partner 2 µM)
Summary of the method: as §1

NCI-H650
relative viability (Bemcentinib + Dasatinib; first compound 0.04 µM): 0.424
relative viability (Bemcentinib + Dasatinib; first compound 0.1265 µM): 0.514
relative viability (Bemcentinib + Dasatinib; first compound 0.4 µM): 0.474
relative viability (Bemcentinib + Dasatinib; first compound 1.265 µM): 0.43
relative viability (Bemcentinib + Dasatinib; first compound 4 µM): 0.4
relative viability (Bemcentinib + Vorinostat; first compound 0.04 µM): 0.353
relative viability (Bemcentinib + Vorinostat; first compound 0.1265 µM): 0.442
relative viability (Bemcentinib + Vorinostat; first compound 0.4 µM): 0.378
relative viability (Bemcentinib + Vorinostat; first compound 1.265 µM): 0.374
relative viability (Bemcentinib + Vorinostat; first compound 4 µM): 0.418
relative viability (Axitinib + Phenformin; first compound 0.005 µM): 0.462
relative viability (Axitinib + Phenformin; first compound 0.01581 µM): 0.434
relative viability (Axitinib + Phenformin; first compound 0.05 µM): 0.483
relative viability (Axitinib + Phenformin; first compound 0.1581 µM): 0.424
relative viability (Axitinib + Phenformin; first compound 0.5 µM): 0.471
relative viability (Bemcentinib + Decitabine; first compound 0.04 µM): 0.269
relative viability (Bemcentinib + Decitabine; first compound 0.1265 µM): 0.301
relative viability (Bemcentinib + Decitabine; first compound 0.4 µM): 0.282
relative viability (Bemcentinib + Decitabine; first compound 1.265 µM): 0.294
relative viability (Bemcentinib + Decitabine; first compound 4 µM): 0.347
